Laboratory results reported in publication PMC12491518, “Fabrication of cytotoxic mirror image nanopores” (Nature Communications, 2025).
Where no end group is shown, it is not given here.

Key:
[1] = Single-channel electrical recordings in planar lipid bilayers; type: biochemical; conditions: Supplementary Table 1
Protocol: High-resolution electrical recordings for the single-channel characterization were conducted in planar lipid bilayers made up of 1,2-diphytanoyl-sn-glycero-3-phosphocholine (DPhPC, Avanti Polar Lipids)[23],[27],[51]. The lipid bilayer is formed across a polytetrafluoroethylene (Teflon) aperture of ~100 µm in diameter. Teflon is placed between the two sides of the Delrin bilayer chamber, partitioning it into cis and trans compartments (600 µL each). For constructing a solvent-free lipid bilayer, the aperture is made lipophilic by pre-painting both sides with hexadecane in n-pentane (1 μL, 5 mg mL^−1)[51]. After ~10 min, the chambers were filled with buffered electrolytes (1 M KCl, 10 mM HEPES, pH 7.4), and DPhPC in n-pentane (1 μL, 5 mg mL^−1) was added. After ~15 min incubation, the lipid bilayer is formed by raising and lowering the electrolyte solution, bringing the two lipid monolayers together at the aperture. The cis compartment was connected to the ground electrode, while the trans compartment was connected to the working live electrode. Subsequently, DpPorA or DpPorA DE peptides solubilized in 0.1% DDM (1 µL, 100 µg mL^−1) were consistently introduced into the cis compartment of the bilayer. The peptide pore insertion was facilitated by mixing the bilayer chamber and applying a high voltage of +200 mV. The single-channel electrical properties of the peptide pores and analyte-induced pore blockages were examined in 1 M KCl, 10 mM HEPES, pH 7.4. Ion selectivity was assessed under asymmetric salt conditions with a KCl concentration gradient across the planar lipid bilayer (0.15 M cis/1 M trans) (SI text)[27]. The ion current was acquired and amplified using an Axopatch 200B amplifier, digitized with Digidata 1550B digitizer, and recorded using the pClamp 11 acquisition software (Molecular Devices, CA). The current signals were filtered with a 2 kHz low-pass filter frequency and 10 kHz sampling frequency, or with 10 kHz low-pass filter frequency and 50 kHz sampling frequency, in line with the requirement.

MDA-MB-231 cells = type: cell-based, human; conditions: 10 µM and 20 µM, 24 h, MTT, n = 3
Protocol: The MDA-MB-231 cell line was obtained from ATCC (Kind gift from Dr. Annapoorni Rangarajan, Indian Institute of Science, Bengaluru, Karnataka, India) and tested negative for mycoplasma contamination. Cells were cultured in DMEM (Gibco, 11965-092) supplemented with 10% FBS (Thermo Fisher Scientific, 10270-106) and Penicillin (100 Units/mL) /Streptomycin (100 µg/mL) (Thermo Fisher Scientific, 15070-063). […] Cell proliferation was measured 24 h after the addition of Peptide/ DDM using MTT assay (3-(4,5-dimethylthiazol-2-yl)-2,5-diphenyltetrazolium bromide, M6494, Thermo Fischer Scientific). […] The purple-colored formazan crystals were dissolved by adding 100 µL DMSO (D5879, Sigma Aldrich), and the absorbance at 570 nm was measured using a plate reader (EMax plus microplate reader). […]
Immunofluorescence (IF) images were analyzed to assess the impact of different treatments on cell membrane integrity. […] We evaluated a t least 100 cells for each group - Control, DDM-treated cells and peptide-treated cells- with independent analysis done by a student blinded to the groups' identity . […]
indicating a loss of cell membrane integrity. This categorization provided a clear and systematic approach to quantify the effects of various treatments on cell membrane integrity. […]

| Sequence | experimental conductance Gexp [1] [nS] | change in cell viability (MDA-MB-231 cells) |
| --- | --- | --- |
| MIDQITEIFGQLGTFLGGFGNIFKGLKAVIATIVKWTAAK [LpPorA DE] | 3.8 ± 0.2 | – |
| MIDQITEIFGQLGTFLGGFGNIFKGLKDVIETIVKWTAAK [LpPorA] | 3.0 ± 0.2 | no significant change in viability |
